Data published in US20120010164A1, “ANTIVIRAL AGENTS” (priority 2009, published 2012).

What was measured:
[1] = test system: subgenomic HCV Replicon in hepatoma (HuH-7) cells; experiment: Assay for inhibition of HCV RNA replication (replicon, in situ ribonuclease protection SPA); format: cell-based; details: Hepatitis C virus, HuH-7 replicon cells, activity ranges
Experimental: The compounds of the present invention were also evaluated for their ability to affect the replication of Hepatitis C Virus RNA in cultured hepatoma (HuH-7) cells containing a subgenomic HCV Replicon. The details of the assay are described below. This Replicon assay is a modification of that described in V. Lohmann, F. Korner, J-O. Koch, U. Herian, L. Theilmann, and R. Bartenschlager, “Replication of a Sub-genomic Hepatitis C Virus RNAs in a Hepatoma Cell Line,” Science 285:110 (1999).
The assay was an in situ Ribonuclease protection, Scintillation Proximity based-plate assay (SPA). 10,000-40,000 cells were plated in 100-200 μL of media containing 0.8 mg/mL G418 in 96-well cytostar plates (Amersham). Compounds were added to cells at various concentrations up to 100 μM in 1% DMSO at time 0 to 18 h and then cultured for 24-96 h. Cells were fixed (20 min, 10% formalin), permeabilized (20 min, 0.25% Triton X-100/PBS) and hybridized (overnight, 50° C.) with a single-stranded ^33P RNA probe complementary to the (+) strand NS5B (or other genes) contained in the RNA viral genome. Cells were washed, treated with RNAse, washed, heated to 65° C. and counted in a Top-Count Inhibition of replication was read as a decrease in counts per minute (cpm).
Human HuH-7 hepatoma cells, which were selected to contain a subgenomic replicon, carry a cytoplasmic RNA consisting of an HCV 5′ non-translated region (NTR), a neomycin selectable marker, an EMCV IRES (internal ribosome entry site), and HCV non-structural proteins NS3 through NS5B, followed by the 3′ NTR.

[2] = Cellular toxicity counterscreen (CC50); format: cell-based; details: human, HuH-7 hepatoma cells
Experimental: The compounds of the present invention were also evaluated for cellular toxicity and anti-viral specificity in the counterscreens described below.

Structure (SMILES)	EC50 [1]	CC50 [2]
[N-]=[N+]=N[C@]1(CO)O[C@@H](n2cc(F)c3c(N)ncnc32)[C@@H](F)[C@@H]1O [Example 2, 7-(4-azido-2-deoxy-2-fluoro-β-D-arabinofuranosyl)-5-fluoro-7H-pyrrolo[2,3-d]pyrimidin-4-amine]	20 to 100 µM	> 100 µM
[N-]=[N+]=N[C@]1(CO)OC(n2cnc3c(N)ncnc32)[C@@H](F)[C@@H]1O (stereo partly drawn) [Example 3, 9-(4-azido-2-deoxy-2-fluoro-b-D-arabinofuranosyl)-9H-purin-6-amine]	> 100 µM	> 100 µM
[N-]=[N+]=N[C@]1(CO)O[C@@H](n2ccc3c(N)ncnc32)[C@@H](F)[C@@H]1O [Example 1, 7-(4-azido-2-deoxy-2-fluoro-β-D-arabinofuranosyl)-7H-pyrrolo[2,3-d]pyrimidin-4-amine]	< 20 µM	> 100 µM
